Laboratory results published in publication PMC7026418, “The kinase polypharmacology landscape of clinical PARP inhibitors” (Scientific Reports, 2020).
Where two headings read alike, the source gives them in different places. Blank lines part the entries; values can stand above or below the compound they belong to.

Columns and labels:
Experiment in all cases: biochemical
Set-up in all cases: DiscoveRx KINOMEscan active site-directed competition binding; percent of control kinase bound to immobilised ligand
STK39 = STK39 (Homo sapiens, UniProt Q9UEW8)
EPHB1 = target: T1, EPHB1 (Homo sapiens, UniProt P54762)
T1 sequence (P54762 1-984): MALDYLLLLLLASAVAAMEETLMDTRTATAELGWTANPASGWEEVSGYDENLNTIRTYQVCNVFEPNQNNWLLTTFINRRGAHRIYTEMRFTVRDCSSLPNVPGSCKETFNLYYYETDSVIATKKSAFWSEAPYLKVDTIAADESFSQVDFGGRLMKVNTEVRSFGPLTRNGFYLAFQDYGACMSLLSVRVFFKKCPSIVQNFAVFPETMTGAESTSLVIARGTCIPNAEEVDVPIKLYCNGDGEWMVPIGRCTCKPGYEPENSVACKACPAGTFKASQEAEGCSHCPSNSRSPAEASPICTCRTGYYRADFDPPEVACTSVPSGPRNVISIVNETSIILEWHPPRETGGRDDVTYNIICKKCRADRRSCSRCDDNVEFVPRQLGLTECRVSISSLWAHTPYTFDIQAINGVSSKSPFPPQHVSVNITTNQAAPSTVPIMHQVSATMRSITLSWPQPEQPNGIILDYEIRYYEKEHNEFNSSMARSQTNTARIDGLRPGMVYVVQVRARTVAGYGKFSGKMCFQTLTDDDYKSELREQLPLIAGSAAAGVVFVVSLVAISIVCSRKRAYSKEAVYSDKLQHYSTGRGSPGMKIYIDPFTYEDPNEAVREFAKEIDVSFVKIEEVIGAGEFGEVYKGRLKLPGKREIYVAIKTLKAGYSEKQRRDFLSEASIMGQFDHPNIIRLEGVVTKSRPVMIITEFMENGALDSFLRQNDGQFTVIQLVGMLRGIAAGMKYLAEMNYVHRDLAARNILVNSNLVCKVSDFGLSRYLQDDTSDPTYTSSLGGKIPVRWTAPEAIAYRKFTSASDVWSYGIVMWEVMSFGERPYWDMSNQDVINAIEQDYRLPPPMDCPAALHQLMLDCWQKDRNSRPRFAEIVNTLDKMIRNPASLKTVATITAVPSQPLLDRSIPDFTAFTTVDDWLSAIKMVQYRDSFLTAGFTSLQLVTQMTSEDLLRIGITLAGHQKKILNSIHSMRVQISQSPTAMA

CSNK1G1 = CSNK1G1 (Homo sapiens, UniProt Q9HCP0)
Sequence of CSNK1G1 (Q9HCP0 whole entry): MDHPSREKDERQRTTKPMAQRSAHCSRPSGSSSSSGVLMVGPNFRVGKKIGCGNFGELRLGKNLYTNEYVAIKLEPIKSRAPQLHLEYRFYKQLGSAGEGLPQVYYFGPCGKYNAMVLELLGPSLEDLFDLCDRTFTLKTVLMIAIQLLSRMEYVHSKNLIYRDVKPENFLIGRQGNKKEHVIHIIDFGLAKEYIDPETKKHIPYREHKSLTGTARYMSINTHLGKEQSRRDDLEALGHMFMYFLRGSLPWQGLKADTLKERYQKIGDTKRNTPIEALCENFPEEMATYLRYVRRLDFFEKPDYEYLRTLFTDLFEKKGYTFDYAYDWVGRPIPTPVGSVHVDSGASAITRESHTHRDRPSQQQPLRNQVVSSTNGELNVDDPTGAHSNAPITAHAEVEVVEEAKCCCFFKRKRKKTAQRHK

CDK7 = CDK7 (Homo sapiens, UniProt P50613)
Sequence of CDK7 (P50613 whole entry): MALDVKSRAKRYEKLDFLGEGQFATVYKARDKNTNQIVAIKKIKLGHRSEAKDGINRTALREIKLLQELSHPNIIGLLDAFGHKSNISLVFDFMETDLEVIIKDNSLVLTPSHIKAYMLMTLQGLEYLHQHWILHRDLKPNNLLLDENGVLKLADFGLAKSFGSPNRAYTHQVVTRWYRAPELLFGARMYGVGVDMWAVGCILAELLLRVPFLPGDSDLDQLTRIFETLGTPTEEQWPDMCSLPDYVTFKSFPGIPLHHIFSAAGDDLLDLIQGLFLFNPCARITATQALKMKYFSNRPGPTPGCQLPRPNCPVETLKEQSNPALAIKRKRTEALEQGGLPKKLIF

CSNK1A1 = CSNK1A1 (Homo sapiens, UniProt P48729)
Sequence of CSNK1A1 (P48729 whole entry): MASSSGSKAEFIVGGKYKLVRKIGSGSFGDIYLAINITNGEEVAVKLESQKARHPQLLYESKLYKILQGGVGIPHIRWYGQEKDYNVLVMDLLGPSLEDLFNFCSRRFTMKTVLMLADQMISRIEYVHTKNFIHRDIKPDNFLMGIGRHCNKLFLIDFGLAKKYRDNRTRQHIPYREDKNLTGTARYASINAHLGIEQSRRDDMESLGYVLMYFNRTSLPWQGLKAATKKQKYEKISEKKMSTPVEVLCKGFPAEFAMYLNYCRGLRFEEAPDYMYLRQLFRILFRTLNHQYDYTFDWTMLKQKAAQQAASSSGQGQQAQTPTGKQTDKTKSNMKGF

INSRR = INSRR (Homo sapiens, UniProt P14616)
Sequence of INSRR (P14616 whole entry): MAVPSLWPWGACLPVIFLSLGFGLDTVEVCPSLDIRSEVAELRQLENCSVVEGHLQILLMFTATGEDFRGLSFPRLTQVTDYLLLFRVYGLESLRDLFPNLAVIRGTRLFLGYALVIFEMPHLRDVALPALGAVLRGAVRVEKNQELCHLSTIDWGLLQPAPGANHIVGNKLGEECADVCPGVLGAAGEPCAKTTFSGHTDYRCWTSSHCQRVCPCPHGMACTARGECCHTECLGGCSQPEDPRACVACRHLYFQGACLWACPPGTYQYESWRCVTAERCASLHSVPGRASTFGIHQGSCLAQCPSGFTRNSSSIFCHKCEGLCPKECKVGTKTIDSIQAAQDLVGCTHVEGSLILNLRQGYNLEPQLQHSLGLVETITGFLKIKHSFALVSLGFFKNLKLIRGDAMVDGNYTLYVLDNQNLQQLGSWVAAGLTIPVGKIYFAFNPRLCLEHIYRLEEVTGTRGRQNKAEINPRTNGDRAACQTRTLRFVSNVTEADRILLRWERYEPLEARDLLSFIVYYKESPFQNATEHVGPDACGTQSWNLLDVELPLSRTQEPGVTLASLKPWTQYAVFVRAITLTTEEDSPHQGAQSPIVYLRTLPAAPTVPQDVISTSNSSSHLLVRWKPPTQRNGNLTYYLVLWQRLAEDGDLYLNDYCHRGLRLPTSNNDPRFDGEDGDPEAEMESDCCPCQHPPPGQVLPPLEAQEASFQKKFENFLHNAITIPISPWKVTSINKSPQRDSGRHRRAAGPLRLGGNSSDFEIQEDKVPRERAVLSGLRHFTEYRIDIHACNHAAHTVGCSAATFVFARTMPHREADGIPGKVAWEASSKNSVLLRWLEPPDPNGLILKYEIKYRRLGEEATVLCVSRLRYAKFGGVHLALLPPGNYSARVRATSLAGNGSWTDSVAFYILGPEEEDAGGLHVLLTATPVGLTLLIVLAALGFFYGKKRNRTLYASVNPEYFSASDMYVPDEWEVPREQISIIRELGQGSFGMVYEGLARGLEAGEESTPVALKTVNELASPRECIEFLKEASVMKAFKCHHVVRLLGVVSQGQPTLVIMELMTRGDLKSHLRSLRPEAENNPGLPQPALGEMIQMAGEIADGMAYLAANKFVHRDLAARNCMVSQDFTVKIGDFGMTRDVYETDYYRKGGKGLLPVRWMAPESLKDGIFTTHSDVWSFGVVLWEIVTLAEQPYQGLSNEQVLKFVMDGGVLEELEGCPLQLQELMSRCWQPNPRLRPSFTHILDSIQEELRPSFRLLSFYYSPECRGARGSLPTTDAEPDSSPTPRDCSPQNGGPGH

RIPK5 = target: T2, RIPK5 (Homo sapiens, UniProt Q6XUX3)
T2 construct: gene DSTYK
T2 sequence (Q6XUX3 1-929): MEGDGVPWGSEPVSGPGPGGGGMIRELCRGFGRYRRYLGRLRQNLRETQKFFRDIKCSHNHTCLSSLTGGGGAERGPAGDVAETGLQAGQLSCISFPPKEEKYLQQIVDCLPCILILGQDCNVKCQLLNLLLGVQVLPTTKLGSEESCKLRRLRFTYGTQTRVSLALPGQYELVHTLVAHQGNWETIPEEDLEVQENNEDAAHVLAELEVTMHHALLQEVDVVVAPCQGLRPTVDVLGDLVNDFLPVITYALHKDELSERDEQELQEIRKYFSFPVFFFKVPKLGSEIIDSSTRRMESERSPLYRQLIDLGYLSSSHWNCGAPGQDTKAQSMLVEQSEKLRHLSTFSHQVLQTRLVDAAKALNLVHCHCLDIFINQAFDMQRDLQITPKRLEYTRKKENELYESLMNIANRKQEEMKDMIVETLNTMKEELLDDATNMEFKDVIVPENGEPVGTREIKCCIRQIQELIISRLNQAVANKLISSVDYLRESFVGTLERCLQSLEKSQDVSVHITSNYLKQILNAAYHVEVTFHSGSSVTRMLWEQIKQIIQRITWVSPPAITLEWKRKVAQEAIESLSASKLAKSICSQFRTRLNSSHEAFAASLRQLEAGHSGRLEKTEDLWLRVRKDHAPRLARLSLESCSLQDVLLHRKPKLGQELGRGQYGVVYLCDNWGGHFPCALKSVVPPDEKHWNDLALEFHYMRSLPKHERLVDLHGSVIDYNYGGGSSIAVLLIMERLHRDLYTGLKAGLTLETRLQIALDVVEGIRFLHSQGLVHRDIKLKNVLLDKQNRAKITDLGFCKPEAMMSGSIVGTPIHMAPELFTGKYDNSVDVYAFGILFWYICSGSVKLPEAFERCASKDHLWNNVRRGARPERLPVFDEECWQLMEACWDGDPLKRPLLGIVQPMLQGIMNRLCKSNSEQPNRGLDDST

EGFR(T790M) = EGFR(T790M) (Homo sapiens, UniProt P00533, T790M)
Sequence of EGFR(T790M) (P00533 whole entry T790M): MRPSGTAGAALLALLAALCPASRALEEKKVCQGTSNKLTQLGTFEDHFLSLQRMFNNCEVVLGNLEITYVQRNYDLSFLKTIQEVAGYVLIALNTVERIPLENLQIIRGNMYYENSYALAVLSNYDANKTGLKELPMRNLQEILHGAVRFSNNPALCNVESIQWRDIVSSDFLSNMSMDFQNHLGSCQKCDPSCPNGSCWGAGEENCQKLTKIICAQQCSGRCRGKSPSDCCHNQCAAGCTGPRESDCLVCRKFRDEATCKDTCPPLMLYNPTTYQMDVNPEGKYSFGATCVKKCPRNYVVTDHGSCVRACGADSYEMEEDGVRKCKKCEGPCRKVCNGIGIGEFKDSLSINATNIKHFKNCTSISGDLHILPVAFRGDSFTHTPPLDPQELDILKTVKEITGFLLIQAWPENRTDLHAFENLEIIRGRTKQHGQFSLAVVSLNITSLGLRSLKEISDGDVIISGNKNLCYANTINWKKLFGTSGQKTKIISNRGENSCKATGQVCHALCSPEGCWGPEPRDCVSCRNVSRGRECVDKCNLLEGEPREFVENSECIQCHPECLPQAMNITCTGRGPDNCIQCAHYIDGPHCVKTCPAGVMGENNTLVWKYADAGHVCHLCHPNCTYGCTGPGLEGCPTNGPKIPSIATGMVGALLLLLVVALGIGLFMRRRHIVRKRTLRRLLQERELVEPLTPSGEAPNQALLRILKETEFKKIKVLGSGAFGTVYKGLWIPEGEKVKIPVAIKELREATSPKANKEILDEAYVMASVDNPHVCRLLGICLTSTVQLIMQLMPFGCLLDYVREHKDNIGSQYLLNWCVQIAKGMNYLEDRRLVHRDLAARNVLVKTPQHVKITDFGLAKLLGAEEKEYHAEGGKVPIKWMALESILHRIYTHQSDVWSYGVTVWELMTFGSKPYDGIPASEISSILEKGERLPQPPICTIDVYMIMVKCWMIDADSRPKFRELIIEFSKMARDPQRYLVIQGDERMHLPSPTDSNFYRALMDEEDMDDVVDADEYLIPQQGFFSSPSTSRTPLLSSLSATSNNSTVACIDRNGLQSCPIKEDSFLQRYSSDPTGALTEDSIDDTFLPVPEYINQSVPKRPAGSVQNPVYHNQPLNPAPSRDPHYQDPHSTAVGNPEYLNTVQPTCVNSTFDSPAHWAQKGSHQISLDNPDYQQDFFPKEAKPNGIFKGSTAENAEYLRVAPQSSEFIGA

EPHA4 = EPHA4 (Homo sapiens, UniProt P54764)
Sequence of EPHA4 (P54764 whole entry): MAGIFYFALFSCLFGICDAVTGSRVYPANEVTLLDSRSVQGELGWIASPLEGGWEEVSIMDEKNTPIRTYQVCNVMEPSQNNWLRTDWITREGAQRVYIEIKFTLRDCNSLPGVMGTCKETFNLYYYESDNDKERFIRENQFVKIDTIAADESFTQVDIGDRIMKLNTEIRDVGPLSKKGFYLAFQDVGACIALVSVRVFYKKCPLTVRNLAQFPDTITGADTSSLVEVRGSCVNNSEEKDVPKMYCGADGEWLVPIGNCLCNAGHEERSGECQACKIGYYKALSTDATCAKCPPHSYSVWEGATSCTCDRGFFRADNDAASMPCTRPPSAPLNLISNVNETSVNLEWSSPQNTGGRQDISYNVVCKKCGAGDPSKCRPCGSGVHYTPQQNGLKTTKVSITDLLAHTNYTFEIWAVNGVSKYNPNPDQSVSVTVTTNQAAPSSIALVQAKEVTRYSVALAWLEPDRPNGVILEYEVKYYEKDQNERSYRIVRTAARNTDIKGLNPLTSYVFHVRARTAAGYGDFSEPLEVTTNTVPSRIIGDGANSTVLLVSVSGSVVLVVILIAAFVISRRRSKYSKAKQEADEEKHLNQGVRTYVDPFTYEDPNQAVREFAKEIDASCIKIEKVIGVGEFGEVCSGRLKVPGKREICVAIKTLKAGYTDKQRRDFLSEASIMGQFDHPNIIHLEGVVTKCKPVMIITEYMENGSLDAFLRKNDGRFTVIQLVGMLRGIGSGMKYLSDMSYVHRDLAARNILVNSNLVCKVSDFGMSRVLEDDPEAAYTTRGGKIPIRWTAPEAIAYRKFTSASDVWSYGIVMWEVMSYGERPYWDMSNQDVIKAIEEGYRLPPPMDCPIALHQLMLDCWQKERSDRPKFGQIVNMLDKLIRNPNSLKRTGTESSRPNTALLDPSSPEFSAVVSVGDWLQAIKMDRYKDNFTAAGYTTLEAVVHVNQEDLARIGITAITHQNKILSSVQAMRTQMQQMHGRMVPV

[1] = read-out: Olaparib / %Ctrl @ 10000nM
[2] = read-out: Talazoparib (BMN 673) / %Ctrl @ 10000nM
[3] = read-out: Rucaparib / %Ctrl @ 10000nM, binding competition, % of control
[4] = read-out: Niraparib (MK-4827) / %Ctrl @ 10000nM

- percent of control binding at 10 µM (STK39; [1]): 92%
- percent of control binding at 10 µM (EPHB1; [1]): 99%
- percent of control binding at 10 µM (CSNK1G1; [1]): 97%
- percent of control binding at 10 µM (CDK7; [1]): 89%
- percent of control binding at 10 µM (CSNK1A1; [1]): 81%
- percent of control binding at 10 µM (INSRR; [1]): 100%
- percent of control binding at 10 µM (RIPK5; [1]): 100%
- percent of control binding at 10 µM (EGFR(T790M); [1]): 84%
- percent of control binding at 10 µM (EPHA4; [1]): 92%
SMILES: O=C(c1cc(Cc2n[nH]c(=O)c3ccccc23)ccc1F)N1CCN(C(=O)C2CC2)CC1 [Olaparib]

- percent of control binding at 10 µM (STK39; [2]): 100%
- percent of control binding at 10 µM (EPHB1; [2]): 94%
- percent of control binding at 10 µM (CSNK1G1; [2]): 99%
- percent of control binding at 10 µM (CDK7; [2]): 100%
- percent of control binding at 10 µM (CSNK1A1; [2]): 73%
- percent of control binding at 10 µM (INSRR; [2]): 100%
- percent of control binding at 10 µM (RIPK5; [2]): 100%
- percent of control binding at 10 µM (EGFR(T790M); [2]): 65%
- percent of control binding at 10 µM (EPHA4; [2]): 100%
SMILES: Cn1ncnc1[C@H]1c2n[nH]c(=O)c3cc(F)cc(c23)N[C@@H]1c1ccc(F)cc1 [Talazoparib]

- percent of control binding at 10 µM (STK39; [3]): 73%
- percent of control binding at 10 µM (EPHB1; [3]): 100%
- percent of control binding at 10 µM (CSNK1G1; [3]): 93%
- percent of control binding at 10 µM (CDK7; [3]): 71%
- percent of control binding at 10 µM (CSNK1A1; [3]): 39%
- percent of control binding at 10 µM (INSRR; [3]): 95%
- percent of control binding at 10 µM (RIPK5; [3]): 96%
- percent of control binding at 10 µM (EGFR(T790M); [3]): 75%
- percent of control binding at 10 µM (EPHA4; [3]): 97%
SMILES: CNCc1ccc(-c2[nH]c3cc(F)cc4c3c2CCNC4=O)cc1 [Rucaparib]

SMILES: NC(=O)c1cccc2cn(-c3ccc([C@@H]4CCCNC4)cc3)nc12 [Niraparib]
- percent of control binding at 10 µM (STK39; [4]): 70%
- percent of control binding at 10 µM (EPHB1; [4]): 76%
- percent of control binding at 10 µM (CSNK1G1; [4]): 98%
- percent of control binding at 10 µM (CDK7; [4]): 73%
- percent of control binding at 10 µM (CSNK1A1; [4]): 34%
- percent of control binding at 10 µM (INSRR; [4]): 92%
- percent of control binding at 10 µM (RIPK5; [4]): 89%
- percent of control binding at 10 µM (EGFR(T790M); [4]): 93%
- percent of control binding at 10 µM (EPHA4; [4]): 83%
